The record followed here is patent US9434725B2, “5-azaindazole compounds and methods of use” (priority 2012, dated 2016).

Format in all cases: biochemical
In assay [1] the target is PIM1 (Homo sapiens (Human), UniProt P11309). Briefly: biochemical. The conditions noted are these: 10 μM ATP, 90 min, room temperature; read-out: PIM1 LC3K (KI). On the procedure: (§1) A fluorescent-labeled Pim-specific peptide substrate, was custom synthesized by American Peptide Company (Sunnyvale, Calif.). Reaction Buffer contained 10 mM HEPES, pH 7.2, 10 mM MgCl2, 0.01% Tween 20, 2 mM DTT. Termination Buffer contained 190 mM HEPES, pH 7.2, 0.015% Brij-35, 0.2% Coating Reagent 3 (Caliper Life Sciences, Hopkinton, Mass.), 20 mM EDTA. Separation Buffer contained 100 mM HEPES, pH 7.2, 0.015% Brij-35, 0.1% Coating Reagent 3, 1:200 Coating Reagent 8 (Caliper Life Sciences, Hopkinton, Mass.), 10 mM EDTA and 5% DMSO.
Chain of PIM1 (P11309 whole entry): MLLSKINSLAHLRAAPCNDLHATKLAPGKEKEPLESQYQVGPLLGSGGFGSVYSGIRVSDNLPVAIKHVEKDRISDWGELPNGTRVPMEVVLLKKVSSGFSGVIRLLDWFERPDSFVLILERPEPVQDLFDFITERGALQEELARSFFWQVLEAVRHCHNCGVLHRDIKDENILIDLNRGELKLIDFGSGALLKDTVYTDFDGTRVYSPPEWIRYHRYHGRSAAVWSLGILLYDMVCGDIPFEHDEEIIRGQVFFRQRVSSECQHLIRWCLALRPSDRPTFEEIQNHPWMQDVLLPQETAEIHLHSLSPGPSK
(§2) PIM reactions were carried out in a final volume of 10 μL per well in a 384-well plate. […] After 90 minutes of incubation at room temperature, the phosphorylation reaction was stopped by the addition of 10 μL Termination Buffer. The product and substrate in each independent reaction were separated on a 12-sipper microfluidic chip (Caliper Life Sciences, Hopkinton, Mass.) run on a Caliper LC3000® (Caliper Life Sciences, Hopkinton, Mass.). The separation of product and substrate was optimized by choosing voltages and pressure using Caliper's Optimizer software (Hopkinton, Mass.). […] Substrate conversion was calculated from the electropherogram using HTS Well Analyzer software (Caliper Life Sciences, Hopkinton, Mass.). Ki values for the test compound were calculated.

In assay [2] the target is PIM2 (Homo sapiens (Human), UniProt Q9P1W9). Briefly: Pim kinase binding activity, Caliper LC3000 microfluidic peptide phosphorylation assay, PIM2. The conditions noted are these: 10 μM ATP, 90 min, room temperature; read-out: PIM2 LC3K (KI). On the procedure:
as §1, §2

Assay [3] has as its target PIM3 (Homo sapiens (Human), UniProt Q86V86). Briefly: Pim kinase binding activity, Caliper LC3000 microfluidic peptide phosphorylation assay, PIM3. The following applies: 10 μM ATP, 90 min, room temperature; read-out: PIM3 LC3K (KI). The protocol: as §1, §2

Chain of PIM2 (Q9P1W9 whole entry): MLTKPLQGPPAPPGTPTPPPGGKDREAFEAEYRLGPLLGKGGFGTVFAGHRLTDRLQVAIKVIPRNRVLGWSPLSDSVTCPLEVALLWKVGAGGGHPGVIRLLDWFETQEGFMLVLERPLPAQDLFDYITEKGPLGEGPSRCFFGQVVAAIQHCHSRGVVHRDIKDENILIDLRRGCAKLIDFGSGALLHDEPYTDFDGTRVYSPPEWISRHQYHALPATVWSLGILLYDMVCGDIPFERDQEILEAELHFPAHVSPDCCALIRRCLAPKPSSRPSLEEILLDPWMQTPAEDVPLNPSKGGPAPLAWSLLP

The Ki is the equilibrium dissociation constant of an inhibitor or competing ligand from its target. Consider `CCn1cc(-c2cc3c(cn2)cnn3-c2cccc(N3CCC[C@@H](N)C3)n2)cn1` [Compound 134, (R)-1-(6-(6-(1-ethyl-1H-pyrazol-4-yl)-1H-pyrazolo[4,3-c]pyridin-1-yl)pyridin-2-yl)piperidin-3-amine], for which the Ki in assay [1] came out at 0.951 nM; in assay [2], 10.8 nM; in assay [3], 0.473 nM.
For `CCn1cc(-c2cc3c(cn2)cnn3-c2cccc(N3CC[C@H](N)C3)n2)cn1` [Compound 135, (S)-1-(6-(6-(1-ethyl-1H-pyrazol-4-yl)-1H-pyrazolo[4,3-c]pyridin-1-yl)pyridin-2-yl)pyrrolidin-3-amine] the same measures were 2.12 nM, 11.1 nM and 0.84 nM.
`CCn1cc(-c2cc3c(cn2)cnn3-c2cccc(N3CC[C@@H](N)C3)n2)cn1` [Compound 136, (R)-1-(6-(6-(1-ethyl-1H-pyrazol-4-yl)-1H-pyrazolo[4,3-c]pyridin-1-yl)pyridin-2-yl)pyrrolidin-3-amine]: the inhibition constant (Ki) is 2.05 nM in assay [1], 17.3 nM in assay [2] and 0.615 nM in assay [3].
On to `CCn1cc(-c2cc3c(cn2)cnn3-c2cccc(N3CCCC(N)CC3)n2)cn1` (stereo not drawn) [Compound 140, 1-(6-(6-(1-ethyl-1H-pyrazol-4-yl)-1H-pyrazolo[4,3-c]pyridin-1-yl)pyridin-2-yl)azepan-4-amine], for which the inhibitory constant (Ki) in assay [1] worked out at 1.04 nM; in assay [2], 13.4 nM; in assay [3], 0.454 nM.
For `CC[C@@H]1CN(c2cccc(-n3ncc4cnc(-c5cnn(CC)c5)cc43)n2)CCN1` [Compound 142, (R)-6-(1-ethyl-1H-pyrazol-4-yl)-1-(6-(3-ethylpiperazin-1-yl)pyridin-2-yl)-1H-pyrazolo[4,3-c]pyridine] the same measures were 0.802 nM, 15 nM and 0.458 nM.
For `CCn1cc(-c2cc3c(cn2)cnn3-c2cccc(NC3CCCCNC3)n2)cn1` (stereo not drawn) [Compound 143, N-(6-(6-(1-ethyl-1H-pyrazol-4-yl)-1H-pyrazolo[4,3-c]pyridin-1-yl)pyridin-2-yl)azepan-3-amine] the same measures were 2.46 nM, 31.1 nM and 1.62 nM.
Regarding `Cn1ncc(-c2cc3c(cn2)cnn3-c2cccc(N3CCCNCC3)n2)cc1=O` [Compound 148, 5-(1-(6-(1,4-diazepan-1-yl)pyridin-2-yl)-1H-pyrazolo[4,3-c]pyridin-6-yl)-2-methylpyridazin-3(2H)-one], the Ki turned out to be 128 nM in assay [1], 4100 nM in assay [2] and 45.2 nM in assay [3].
For `c1cc(N2CCCNCC2)nc(-n2ncc3cnc(-c4cnn(CC5COC5)c4)cc32)c1` [Compound 158, 1-(6-(1,4-Diazepan-1-yl)pyridin-2-yl)-6-(1-(oxetan-3-ylmethyl)-1H-pyrazol-4-yl)-1H-pyrazolo[4,3-c]pyridine] the same measures were 287 nM, 2900 nM and 284 nM.
On to `NC(=O)Cn1cc(-c2cc3c(cn2)cnn3-c2cccc(N3CCCNCC3)n2)cn1` [Compound 159, 2-(4-(1-(6-(1,4-Diazepan-1-yl)pyridin-2-yl)-1H-pyrazolo[4,3-c]pyridin-6-yl)-1H-pyrazol-1-yl)acetamide], for which the results for the Ki in assay [1], in assay [2] and in assay [3] were 0.283 nM, 8.33 nM and 0.185 nM, respectively.
Turning to `Cc1cncc(-c2cc3c(cn2)cnn3-c2cccc(C3=CCNCC3)n2)n1` [Compound 160, 6-(6-methylpyrazin-2-yl)-1-[6-(1 2 3 6-tetrahydropyridin-4-yl)-2-pyridyl]pyrazolo[4,3-c]pyridine], the results for the Ki in assay [1], in assay [2] and in assay [3] were 1.17 nM, 8.31 nM and 1.06 nM, respectively.
As for `c1cc(N2CCCNCC2)nc(-n2ncc3cnc(-c4cnn(CC5CC5)c4)cc32)c1` [Compound 161, 1-(6-(1,4-Diazepan-1-yl)pyridin-2-yl)-6-(1-(cyclopropylmethyl)-1H-pyrazol-4-yl)-1H-pyrazolo[4,3-c]pyridine], the Ki in assay [1] worked out at 1.86 nM; in assay [2], 18.8 nM; in assay [3], 2.19 nM.
On the same counts, the results for `CCn1cc(-c2cc3c(cn2)cnn3-c2cncc(N3CCCNCC3)n2)cn1` [Compound 163, 1-(6-(1,4-diazepan-1-yl)pyrazin-2-yl)-6-(1-ethyl-1H-pyrazol-4-yl)-1H-pyrazolo[4,3-c]pyridine] are 1.63 nM, 26.6 nM and 2.96 nM.
For `Cc1cnc(O)c(-c2cc3c(cn2)cnn3-c2cncc(N3CCCNCC3)n2)c1` [Compound 164, 3-(1-(6-(1,4-diazepan-1-yl)pyrazin-2-yl)-1H-pyrazolo[4,3-c]pyridin-6-yl)-5-methylpyridin-2-ol] the same measures were 50.2 nM, 527 nM and 14.8 nM.
As to `CC(C)(C)c1cncc(-c2cc3c(cn2)cnn3-c2cccc(N3CCNCC3)n2)n1` [Compound 170, 6-(6-tert-butylpyrazin-2-yl)-1-(6-piperazin-1-yl-2-pyridyl)pyrazolo[4,3-c]pyridine], the Ki in assay [1] was 20.5 nM; in assay [2] it was 91.2 nM; in assay [3] it was 8.02 nM.
Consider `FC(F)n1cc(-c2cc3c(cn2)cnn3-c2cccc(N3CCCNCC3)n2)cn1` [Compound 173, 1-(6-(1,4-Diazepan-1-yl)pyridin-2-yl)-6-(1-(difluoromethyl)-1H-pyrazol-4-yl)-1H-pyrazolo[4,3-c]pyridine], for which the results for the Ki in assay [1], in assay [2] and in assay [3] were 1.21 nM, 9.54 nM and 1.09 nM, respectively.
On the same counts, the results for `c1cc(N2CCCNCC2)nc(-n2ncc3cnc(-c4cncnc4)cc32)c1` [Compound 175, 1-(6-(1,4-Diazepan-1-yl)pyridin-2-yl)-6-(pyrimidin-5-yl)-1H-pyrazolo[4,3-c]pyridine] are 11.3 nM, 196 nM and 6.72 nM.
With `N#Cc1cncc(-c2cc3c(cn2)cnn3-c2cccc(N3CCNCC3)n2)n1` [Compound 177, 6-[1-(6-piperazin-1-yl-2-pyridyl)pyrazolo[4,3-c]pyridin-6-yl]pyrazine-2-carbonitrile], the Ki amounted to 1.04 nM in assay [1], 16.1 nM in assay [2] and 0.363 nM in assay [3].
On the same counts, the results for `Cc1cncc(-c2cc3c(cn2)cnn3-c2cccc(N3CCC4(CCNCC4)C3)n2)n1` [Compound 199, 2-[6-[6-(6-methylpyrazin-2-yl)pyrazolo[4,3-c]pyridin-1-yl]-2-pyridyl]-2 8-diazaspiro[4.5]decane] are 0.716 nM, 13.7 nM and 0.655 nM.
Take `Cc1cncc(-c2cc3c(cn2)cnn3-c2cccc(N3CCC4(CCNC4)CC3)n2)n1` [Compound 200, 8-[6-[6-(6-methylpyrazin-2-yl)pyrazolo[4,3-c]pyridin-1-yl]-2-pyridyl]-2 8-diazaspiro[4.5]decane]: the inhibition constant Ki in assay [1] amounted to 1.21 nM; in assay [2] it was 17 nM; in assay [3], 0.451 nM.
For `Cc1cncc(-c2cc3c(cn2)cnn3-c2cccc(N3C[C@@H](N)CCC3=O)n2)n1` [Compound 202, (5S)-5-amino-1-[6-[6-(6-methylpyrazin-2-yl)pyrazolo[4,3-c]pyridin-1-yl]-2-pyridyl]piperidin-2-one] the same measures were 56.4 nM, 421 nM and 36.4 nM.
On the same counts, the results for `Cc1cncc(-c2cc3c(cn2)cnn3-c2cccc(N3CCNCCC3=O)n2)n1` [Compound 206, 4-[6-[6-(6-methylpyrazin-2-yl)pyrazolo[4,3-c]pyridin-1-yl]-2-pyridyl]-1 4-diazepan-5-one] are 3.74 nM, 40.4 nM and 2.3 nM.
For `Cc1cncc(-c2cc3c(cn2)cnn3-c2cccc(N3CC4(CCNC4)C3)n2)n1` [Compound 217, 1-[6-(2 7-diazaspiro[3.4]octan-2-yl)-2-pyridyl]-6-(6-methylpyrazin-2-yl)pyrazolo[4,3-c]pyridine] the same measures were 1.17 nM, 15.1 nM and 0.258 nM.
Take `Cc1cncc(-c2cc3c(cn2)cnn3-c2ccc(C(F)(F)F)c(N3CCNCC(O)C3)n2)n1` (stereo not drawn) [Compound 219, 1-(6-(6-(6-methylpyrazin-2-yl)-1H-pyrazolo[4,3-c]pyridin-1-yl)-3-(trifluoromethyl)pyridin-2-yl)-1,4-diazepan-6-ol]: the Ki in assay [1] came to 0.433 nM; in assay [2], 12.5 nM; in assay [3], 0.265 nM.
As to `Cc1cncc(-c2cc3c(cn2)cnn3-c2ccc(C)c(N3C[C@@H](N)CCC3=O)n2)n1` [Compound 221, (5S)-5-amino-1-[3-methyl-6-[6-(6-methylpyrazin-2-yl)pyrazolo[4,3-c]pyridin-1-yl]-2-pyridyl]piperidin-2-one], the Ki came to 26.2 nM in assay [1], 744 nM in assay [2] and 23.2 nM in assay [3].
